Laboratory results as given in ChEMBL document CHEMBL1201862, “PubChem BioAssay data set” (2004).
Activity calls are given as the source filed them.

Assays:
[1] = target: T1, RNA-binding protein pos-1 (Caenorhabditis elegans, UniProt G5EF15); assay: inhibitors of POS-1/mex-3 RNA binding, dose response, biochemical, fluorescence polarization (AID 1964);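 note: purified POS-1 fused to maltose binding protein made in E. coli; potency of compounds blocking POS-1 binding to fluorescent RNA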
T1 sequence (G5EF15 whole entry): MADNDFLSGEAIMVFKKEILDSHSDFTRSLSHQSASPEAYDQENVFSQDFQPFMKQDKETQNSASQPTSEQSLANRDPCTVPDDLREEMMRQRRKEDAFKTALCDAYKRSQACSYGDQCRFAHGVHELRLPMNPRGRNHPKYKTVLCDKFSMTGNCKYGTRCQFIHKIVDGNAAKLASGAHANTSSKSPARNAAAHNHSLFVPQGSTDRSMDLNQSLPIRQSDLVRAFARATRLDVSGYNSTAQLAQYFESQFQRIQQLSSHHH

[2] = target: T2, Zinc finger protein mex-5 (Caenorhabditis elegans, UniProt Q9XUB2); assay: MEX-5/TCR-2 RNA interaction inhibitors, dose response, biochemical, C. elegans, fluorescence polarization (AID 1960)
T2 sequence (Q9XUB2 whole entry): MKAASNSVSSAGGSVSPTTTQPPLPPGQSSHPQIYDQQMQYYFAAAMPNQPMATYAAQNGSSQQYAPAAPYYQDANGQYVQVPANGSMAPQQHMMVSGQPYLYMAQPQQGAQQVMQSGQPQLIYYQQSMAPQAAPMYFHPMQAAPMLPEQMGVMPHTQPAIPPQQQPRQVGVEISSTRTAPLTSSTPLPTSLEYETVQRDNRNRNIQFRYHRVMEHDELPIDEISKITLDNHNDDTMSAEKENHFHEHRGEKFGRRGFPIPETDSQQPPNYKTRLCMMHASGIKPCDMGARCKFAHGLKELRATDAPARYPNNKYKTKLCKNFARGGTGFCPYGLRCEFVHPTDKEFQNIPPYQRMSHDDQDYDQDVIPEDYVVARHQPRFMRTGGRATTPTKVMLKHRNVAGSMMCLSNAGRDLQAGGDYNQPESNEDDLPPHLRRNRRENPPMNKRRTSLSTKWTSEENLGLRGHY

H9c2 = assay: cells; format: functional, cell-based; conditions: Rattus norvegicus, H9c2, Myocardium;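 note: confirmatory concentration-response retest of ultra-high-throughput screening hits for modulation of myocardial damage; cell death induced by hydrogen peroxide oxidative stress; compound pretreatment for 60 min then peroxide exposure for 2 h; potency is for protecting the cells against peroxide damage rather than for killing them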
Cytochrome P450 1A2 = target: T3, Cytochrome P450 1A2 (Homo sapiens, UniProt P05177);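 note: PubChem cytochrome P450 panel assay, CYP1A2 panel member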
T3 sequence (P05177 whole entry): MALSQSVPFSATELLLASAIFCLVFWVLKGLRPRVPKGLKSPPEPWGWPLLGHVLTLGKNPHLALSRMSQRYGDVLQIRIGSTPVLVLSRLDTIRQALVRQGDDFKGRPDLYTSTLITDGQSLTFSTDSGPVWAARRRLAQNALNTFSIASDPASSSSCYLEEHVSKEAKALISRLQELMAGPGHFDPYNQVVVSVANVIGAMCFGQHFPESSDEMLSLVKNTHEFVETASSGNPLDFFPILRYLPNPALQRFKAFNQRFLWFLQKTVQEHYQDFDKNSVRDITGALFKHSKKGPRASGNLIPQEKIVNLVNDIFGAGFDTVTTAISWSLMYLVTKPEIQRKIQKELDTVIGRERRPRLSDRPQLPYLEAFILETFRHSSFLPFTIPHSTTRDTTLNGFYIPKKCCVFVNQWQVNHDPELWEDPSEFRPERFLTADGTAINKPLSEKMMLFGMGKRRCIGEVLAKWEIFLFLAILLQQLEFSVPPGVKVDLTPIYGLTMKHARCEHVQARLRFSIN

Cytochrome P450 2C19 = Cytochrome P450 2C19 (Homo sapiens, UniProt P33261); assay: Cytochrome panel assay with activity outcomes. Panel member name: p450-cyp2c19 Compounds with AC50 equal or less than 10 uM are considered active; format: functional
Sequence of Cytochrome P450 2C19 (P33261 whole entry): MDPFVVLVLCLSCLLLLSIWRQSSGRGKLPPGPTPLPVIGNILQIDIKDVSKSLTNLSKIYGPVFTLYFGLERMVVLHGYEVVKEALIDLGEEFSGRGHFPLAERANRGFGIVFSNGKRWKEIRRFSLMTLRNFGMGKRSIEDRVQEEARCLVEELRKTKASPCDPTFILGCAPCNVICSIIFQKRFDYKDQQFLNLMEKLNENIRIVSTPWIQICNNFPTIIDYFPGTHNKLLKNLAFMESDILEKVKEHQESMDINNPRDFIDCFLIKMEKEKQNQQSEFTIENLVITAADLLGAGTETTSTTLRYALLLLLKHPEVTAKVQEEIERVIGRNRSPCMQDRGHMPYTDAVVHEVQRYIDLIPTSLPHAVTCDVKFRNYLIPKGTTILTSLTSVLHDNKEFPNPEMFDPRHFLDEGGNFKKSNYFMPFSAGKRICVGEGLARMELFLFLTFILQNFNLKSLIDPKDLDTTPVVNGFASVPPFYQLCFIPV

Cytochrome P450 2C9 = Cytochrome P450 2C9 (Homo sapiens, UniProt P11712)
Sequence of Cytochrome P450 2C9 (P11712 whole entry): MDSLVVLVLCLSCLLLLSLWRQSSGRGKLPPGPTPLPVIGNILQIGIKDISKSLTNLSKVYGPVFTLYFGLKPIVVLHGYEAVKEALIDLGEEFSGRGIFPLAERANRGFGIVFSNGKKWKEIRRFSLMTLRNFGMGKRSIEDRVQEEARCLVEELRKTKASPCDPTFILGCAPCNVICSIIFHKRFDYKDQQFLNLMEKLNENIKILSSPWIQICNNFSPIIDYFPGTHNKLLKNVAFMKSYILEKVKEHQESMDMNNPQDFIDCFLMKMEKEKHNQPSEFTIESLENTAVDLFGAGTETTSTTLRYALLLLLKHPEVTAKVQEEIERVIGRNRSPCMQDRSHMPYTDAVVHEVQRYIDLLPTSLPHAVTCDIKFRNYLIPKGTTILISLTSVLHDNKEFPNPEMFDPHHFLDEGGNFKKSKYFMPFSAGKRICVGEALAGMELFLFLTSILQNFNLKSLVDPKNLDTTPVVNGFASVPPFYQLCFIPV

Cytochrome P450 2D6 = Cytochrome P450 2D6 (Homo sapiens, UniProt P10635);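 note: CYP2D6 member of a cytochrome P450 panel assay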
Sequence of Cytochrome P450 2D6 (P10635 whole entry): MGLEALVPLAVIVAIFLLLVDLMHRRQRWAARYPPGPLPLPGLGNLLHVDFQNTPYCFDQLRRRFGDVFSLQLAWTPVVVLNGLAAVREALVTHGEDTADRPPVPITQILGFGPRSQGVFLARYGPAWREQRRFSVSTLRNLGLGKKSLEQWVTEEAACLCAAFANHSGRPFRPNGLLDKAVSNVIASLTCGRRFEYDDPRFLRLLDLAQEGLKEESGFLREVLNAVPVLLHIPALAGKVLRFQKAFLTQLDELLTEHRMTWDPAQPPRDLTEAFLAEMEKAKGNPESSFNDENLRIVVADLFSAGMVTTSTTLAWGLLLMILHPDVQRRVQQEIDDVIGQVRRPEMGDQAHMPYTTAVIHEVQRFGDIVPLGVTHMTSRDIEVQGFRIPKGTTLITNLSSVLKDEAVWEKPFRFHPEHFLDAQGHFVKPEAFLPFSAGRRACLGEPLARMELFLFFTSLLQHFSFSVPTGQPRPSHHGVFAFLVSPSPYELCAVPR

[3] = target: T4, Heat shock factor protein 1 (Mus musculus, UniProt P38532); assay: inhibition of MG132-induced HSE-luciferase signal, confirmation, cell-based, NIH3T3, luminescence, dose retest (AID 2382); format: functional;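 note: NIH3T3 fibroblasts with HSF1-driven luciferase reporter stressed by proteasome inhibitor MG132; luminescence from HSF1-driven luciferase expression after 8 hours of MG132 stress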
T4 sequence (P38532 whole entry): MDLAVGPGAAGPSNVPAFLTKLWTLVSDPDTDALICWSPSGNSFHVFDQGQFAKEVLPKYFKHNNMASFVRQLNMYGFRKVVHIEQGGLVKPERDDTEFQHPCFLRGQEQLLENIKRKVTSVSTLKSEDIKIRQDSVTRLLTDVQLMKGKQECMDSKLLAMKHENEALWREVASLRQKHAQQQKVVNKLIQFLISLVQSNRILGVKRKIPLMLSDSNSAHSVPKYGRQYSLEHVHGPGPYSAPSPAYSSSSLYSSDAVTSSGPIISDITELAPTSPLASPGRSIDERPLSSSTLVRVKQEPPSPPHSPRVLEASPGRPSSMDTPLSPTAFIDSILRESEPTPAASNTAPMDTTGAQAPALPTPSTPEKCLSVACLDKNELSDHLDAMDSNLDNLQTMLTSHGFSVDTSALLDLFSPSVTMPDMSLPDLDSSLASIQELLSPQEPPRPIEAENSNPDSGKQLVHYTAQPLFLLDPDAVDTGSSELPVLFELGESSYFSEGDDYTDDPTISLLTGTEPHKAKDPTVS

H4 = assay: Luminescence Cell-Based Dose Response HTS to Identify Activators of 5'UTR Stem-Loop Driven Prion Protein mRNA Translation in H4 Neuroglioblastoma Cells. [Related pubchem assays: 1829 (Project Summary), 1814 (Primary HTS)]; format: functional; conditions: Homo sapiens
[4] = Luminescence Cell-Based Dose Confirmation HTS to Identify Activators of 5'UTR Stem-Loop Driven Alpha-Synuclein mRNA Translation in H4 Neuroglioblastoma Cells. [Related pubchem assays: 1829 (Project Summary), 1814 (Primary HTS)]; format: functional
[5] = Luminescence Cell-Based Dose Response HTS to Identify Activators of Luciferase Translation or Activity in H4 […] Cells. [Related pubchem assays: 1829 (Project Summary), 1814 (Primary HTS)]; format: functional
Paired box protein Pax-8 = Paired box protein Pax-8 (Homo sapiens, UniProt Q06710); assay: inhibitors of PAX8-driven TPO luciferase reporter, dose response, RMG-I cells, cherry-pick (AID 687027); format: functional, cell-based;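 note: luciferase reporter driven by Pax8 target thyroperoxidase promoter measured by SteadyGlo luminescence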
Sequence of Paired box protein Pax-8 (Q06710 whole entry): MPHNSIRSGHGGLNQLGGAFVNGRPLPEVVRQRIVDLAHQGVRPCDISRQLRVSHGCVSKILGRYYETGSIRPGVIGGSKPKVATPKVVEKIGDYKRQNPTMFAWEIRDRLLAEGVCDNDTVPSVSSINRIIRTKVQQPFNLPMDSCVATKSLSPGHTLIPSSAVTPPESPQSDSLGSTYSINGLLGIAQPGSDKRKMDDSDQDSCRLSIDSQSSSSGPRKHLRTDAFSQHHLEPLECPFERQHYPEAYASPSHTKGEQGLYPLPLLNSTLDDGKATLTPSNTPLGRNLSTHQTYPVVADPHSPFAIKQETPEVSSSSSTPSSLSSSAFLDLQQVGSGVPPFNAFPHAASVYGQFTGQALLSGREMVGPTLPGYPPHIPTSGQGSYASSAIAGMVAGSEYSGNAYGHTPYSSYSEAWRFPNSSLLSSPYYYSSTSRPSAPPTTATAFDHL

Cytochrome P450 3A4 = Cytochrome P450 3A4 (Homo sapiens, UniProt P08684);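 note: CYP3A4 tested as one member of a cytochrome P450 panel screen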
Sequence of Cytochrome P450 3A4 (P08684 whole entry): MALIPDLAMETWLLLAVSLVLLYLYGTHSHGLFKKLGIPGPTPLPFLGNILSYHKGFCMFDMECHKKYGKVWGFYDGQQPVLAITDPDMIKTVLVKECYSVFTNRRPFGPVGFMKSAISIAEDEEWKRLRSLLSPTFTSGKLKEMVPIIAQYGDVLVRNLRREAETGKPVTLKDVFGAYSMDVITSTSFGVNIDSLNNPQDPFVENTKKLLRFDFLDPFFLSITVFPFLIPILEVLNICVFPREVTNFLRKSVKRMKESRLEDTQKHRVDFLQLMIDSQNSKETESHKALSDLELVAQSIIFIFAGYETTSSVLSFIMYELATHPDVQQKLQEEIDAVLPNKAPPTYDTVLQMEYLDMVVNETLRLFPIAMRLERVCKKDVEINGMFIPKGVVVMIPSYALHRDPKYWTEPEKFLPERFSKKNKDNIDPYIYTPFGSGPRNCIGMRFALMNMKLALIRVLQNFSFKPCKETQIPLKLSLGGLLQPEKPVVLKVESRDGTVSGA

COc1cc(C2C(C#N)=C(N)OC3=C2C(=O)CCC3)ccc1OC(=O)N1CCOCC1 (centres undefined)
EC50 [1]: > 300 µM (not active)
EC50 [2]: > 300 µM (not active)

Cc1ccc(C(c2c(C)n(C)n(-c3ccccc3)c2=O)c2c(C)n(C)n(-c3ccccc3)c2=O)s1
IC50 (H9c2): > 79 µM (inactive)

CC(C)c1ccc(C2C(C#N)=C(N)N3C(=C2C#N)Sc2ccccc23)cc1 (centres undefined)
EC50 [1]: 33 µM (inconclusive)
AC50 (Cytochrome P450 1A2): 25.1 µM (inconclusive)
EC50 [2]: 61.3 µM (active)
AC50 (Cytochrome P450 2C19; read-out: AC50): 14.1 µM (inconclusive)
AC50 (Cytochrome P450 2C9): 10 µM (inconclusive)

Brc1cc2c(cc1/C=N/Nc1nc(N3CCCC3)nc(N3CCOCC3)n1)OCO2
AC50 (Cytochrome P450 2D6): 28.2 µM (inconclusive)
AC50 (Cytochrome P450 1A2): 15.8 µM (inconclusive)
IC50 (H9c2): > 79 µM (inactive)

CCn1c(O)cc(=O)nc1SCC(=O)N1CCOCC1
EC50 [3]: > 195 µM (not active)

O=c1c2ccccc2nc2c3ccccc3c(NCCO)nn12
IC50 (H9c2): 20.2 µM (active)

NC(=O)c1oc2ccccc2c1NC(=O)c1ccco1
IC50 (H9c2): 17 µM (active)

Cc1ccc(Oc2nn[nH]n2)cc1
EC50 (H4): > 120 µM (not active)
EC50 [4]: > 120 µM (not active)
EC50 [5]: > 120 µM (not active)
AC50 (Cytochrome P450 2C19): inconclusive
AC50 (Cytochrome P450 2C9): 7.08 µM (inconclusive)

N#CC(c1nc2ccccc2nc1OCCO)S(=O)(=O)c1ccccc1 (centres undefined)
EC50 [1]: > 300 µM (not active)
EC50 [2]: 142 µM (inconclusive)

Cc1ccc(-c2ccccc2)n1-c1cccc(C(=O)O)c1
EC50 [1]: 109 µM (active)
EC50 [2]: > 300 µM (not active)

C[C@@H]1CN([C@@H](C)CO)C(=O)c2cc(NS(=O)(=O)c3ccc(F)cc3)ccc2O[C@@H](C)CCCCO[C@H]1CN(C)Cc1ccc(C(F)(F)F)cc1
AC50 (Paired box protein Pax-8): 7.5 µM (active)

C[C@H]1CCCCO[C@H](CN(C)S(=O)(=O)c2ccc(Cl)cc2)[C@@H](C)CN([C@@H](C)CO)C(=O)c2cc(NS(=O)(=O)c3ccc(Cl)cc3)ccc2O1
AC50 (Paired box protein Pax-8): 5.52 µM (active)

COc1ccc(CC(=O)NCC2CCCN(Cc3ccccc3Cl)C2)cc1 (centres undefined)
EC50 [3]: > 195 µM (not active)

Cc1ccc(CO/N=C/c2c(O)cc(C)oc2=O)cc1
EC50 [3]: > 195 µM (not active)

CCN(Cc1cc(=O)oc2cc(C)ccc12)c1ccccc1
EC50 [3]: > 195 µM (not active)

O=[N+]([O-])c1ccccc1S(=O)(=O)n1nnc2ccccc21
EC50 [1]: > 300 µM (not active)
EC50 [2]: > 300 µM (not active)

CC(C)OC(=O)CC(=O)c1sc2nc3c(cc2c1N)CN(C)CC3
EC50 [1]: > 300 µM (not active)
EC50 [2]: 19.3 µM (inconclusive)

Cc1ccc(-c2nnc(O)c3ccccc23)cc1S(=O)(=O)NCCO
IC50 (H9c2): > 79 µM (inactive)

CN1CCC(N(C)C(=O)CCc2nc(O)c3ccccc3n2)CC1
AC50 (Cytochrome P450 3A4): 28.2 µM (inconclusive)
IC50 (H9c2): > 79 µM (inactive)

COc1c(C)cc(Br)cc1C(=O)Nc1cccc(-c2nc3ncccc3o2)c1
IC50 (H9c2): > 79 µM (inactive)

CC1CCCN(C(=O)C2CCN(S(=O)(=O)c3ccc4c(c3)CC(C)N4C(=O)C3CC3)CC2)C1 (centres undefined)
EC50 [3]: > 195 µM (not active)

O=C(NCc1ccccc1C(F)(F)F)C12CN(Cc3ccccc3)CC1C(c1ccc([N+](=O)[O-])cc1)=NO2 (centres undefined)
EC50 [3]: > 195 µM (not active)

COC(=O)c1ccc(C)c(-n2c(C)cc(C=O)c2C)c1
EC50 [1]: > 300 µM (not active)
EC50 [2]: > 300 µM (not active)

COc1ccc(CNC(=O)COC(=O)c2cc(-c3ccc(Cl)s3)nc3ccccc23)cc1
EC50 [1]: 92.1 µM (active)
EC50 [2]: 58.6 µM (active)

O=C(Oc1cc(=O)oc2c1c(=O)n1c3c(cccc23)CC1)c1ccc(F)cc1
EC50 [3]: 22.2 µM (active)

COc1ccc(N(CC(=O)NCc2ccc(F)cc2)C(=O)Cn2nnc(-c3ccc(C)o3)n2)cc1OC
EC50 [3]: > 195 µM (not active)

Clc1ccc(-c2csc(N3CCC(c4ccccc4)C3)n2)cc1 (centres undefined)
EC50 (H4): 31.5 µM (active)
EC50 [4]: 18.5 µM (active)
EC50 [5]: 25.7 µM (active)

CC(CN1CCOCC1)OC(=O)C(c1ccccc1)c1ccccc1 (centres undefined)
EC50 [3]: > 195 µM (not active)

COc1cc(-c2cnc3c(NC=O)cc(-c4cccnc4)cn23)cc(OC)c1OC
IC50 (H9c2): 22.4 µM (active)

O=C(c1ccco1)N1CCN(Cc2nc3ccc([N+](=O)[O-])cc3c(=O)n2-c2ccccc2F)CC1
IC50 (H9c2): 27.6 µM (active)

COC/C=C/C1=CC2=CC(=O)C(C)(OC(=O)c3cccs3)C(=O)C2=CO1 (centres undefined)
EC50 [1]: > 300 µM (not active)
EC50 [2]: 51.8 µM (active)

C/C(=N/C1CC1)C1=C(O)c2ccccc2C1=O
EC50 (H4): 6.75 µM (active)
EC50 [4]: > 120 µM (not active)
EC50 [5]: 20.2 µM (active)

O=[N+]([O-])c1cccc(/N=C/C=C(/O)c2ccco2)c1
EC50 (H4): > 120 µM (not active)
EC50 [4]: 1.14 µM (active)
EC50 [5]: 17 µM (active)

CCOC(=O)[C@@]1(C#N)C(c2ccc(Cl)c(Cl)c2)[C@H](C(N)=O)N2C=C(C(C)=O)C=C[C@H]21 (some centres undefined)
EC50 [1]: 55.7 µM (inconclusive)
EC50 [2]: 24 µM (inconclusive)

Nc1cc2nc(O)c3ccccc3c2cc1Br
IC50 (H9c2): > 79 µM (inactive)

CCC(=O)Nc1c(-c2ccc(Cl)cc2)c(=O)c2ccccc2n1C
EC50 [3]: > 195 µM (not active)

COc1cc(C2C3=C(COC3=O)OC(C)(C)Oc3cc4c(cc32)OCO4)cc(OC)c1OC (centres undefined)
AC50 (Paired box protein Pax-8): 1.78 µM (active)

Cc1nc2ccccc2c2c(N)c3ccccc3n12
IC50 (H9c2): 21.6 µM (active)

CC(=O)c1cccc(NC(=O)C(C)OC(=O)Cc2nnc(O)c3ccccc23)c1 (centres undefined)
IC50 (H9c2): > 79 µM (inactive)

COC(=O)c1ccc(C2OCC(C)(C)CO2)cc1
EC50 (H4): 24.9 µM (active)
EC50 [4]: > 120 µM (not active)
EC50 [5]: 35.1 µM (active)

O=C(CC(=O)c1ccccc1[N+](=O)[O-])c1ccccc1
EC50 [3]: > 195 µM (not active)

COc1cccc(-c2cnc3c(NC=O)cc(-c4ccc(OC)cc4OC)cn23)c1
AC50 (Paired box protein Pax-8): 2.93 µM (active)

Cc1ccc(N/C=C(/C#N)c2ccsc2)cc1
EC50 (H4): 68.4 µM (active)
EC50 [4]: 46.7 µM (active)
EC50 [5]: 52.3 µM (active)

C[C@@H]1CN([C@H](C)CO)C(=O)c2cc(NC(=O)c3ccncc3)ccc2O[C@@H](C)CCCCO[C@H]1CN(C)Cc1ccc(C(F)(F)F)cc1
AC50 (Paired box protein Pax-8): 12 µM (active)
